Test results from patent publication US6461997B1, “Triazole sulfones having herbicidal activity” (Monsanto Technology LLC, priority 1999, dated 2002).

Assays:
[1] = system: DIGSA (large crabgrass); test: Pre-plant incorporated (PPI) herbicidal activity, warm season; format: in vivo, Digitaria sanguinalis; details: for PPI activity GR80, DIGSA: pre-plant incorporated, lowest tested rate with 80% or greater inhibition, about 14 days
Experimental: (§1) In another set of tests, the pre-plant incorporated (PPI) activity of compounds of this invention was evaluated on the same species as for the pre-emergence tests described above. In the PPI tests the following procedure, designed to simulate PPI application, was used.
(§2) A pre-prepared topsoil mixture (described above) was placed in a pot and compacted to a depth of 1.0 to 1.25 cm from the top of the pot. Seeds of each of several monocotyledonous and dicotyledonous annual plant species were placed on top of the soil. A sufficient quantity of soil to cover the seeds and level fill the pot was weighed into an open container. A known amount of the test compound was dissolved or suspended in an organic solvent and applied by spraying to this cover soil. The cover soil was thoroughly mixed to distribute the test compound throughout the cover soil, and was then applied as a cover layer over the seeds. Untreated soil was used as a cover layer for control pots. After treatment the plants were placed in a greenhouse where they received 0.64 cm of overhead irrigation. All subsequent watering consisted of a light overhead mist and/or subirrigation as needed for germination and growth. Tables 9 and 10 below relate to warm season plant species which were placed after pre-emergence treatment in a greenhouse with a 30/21° C. day/night temperature regime. Tables 11 and 12 below relates to cool season plant species placed after pre-emergence treatment in a greenhouse or growth chamber with an 18/13° C. day/night temperature regime. Only the compounds of Examples 1, 6, 8, 11, 13 and 15-20 were included in PPI tests.
(§3) Approximately 14 days after planting and treating, the plants were observed and herbicidal efficacy recorded as percent inhibition by comparison with untreated plants.

[2] = system: barley (HORVX); test: Selectivity test, PPI, cool season crop; format: in vivo, Hordeunm vulgare; details: PPI application
Experimental: as §2, §3
Additional pre-emergence and PPI tests were conducted by the procedures described above, on warm and cool season weed species in the presence of crop species, to assess herbicidal selectivity. Crop species included in warm season tests were corn (Zea mays, ZEAMX), rice (Oryza sativa, ORYSA) and soybean (Glycine max, GLYMX). Crop species included in cool season tests were wheat (Triticum aestivum, TRZAW), barley (Hordeunm vulgare, HORVX) and oilseed rape (Brassica napus, BRSNS).
Tables 15 and 16 relate to pre-emergence and PPI tests respectively on warm season species. Table 17 relates to pre-emergence tests on cool season species.

[3] = system: AGRRE (quackgrass (seedling)); test: Pre-plant incorporated (PPI) herbicidal activity, cool season; format: in vivo, Elymus repens; details: for PPI activity GR80, AGRRE: pre-plant incorporated, lowest tested rate with 80% or greater inhibition, about 14 days
Experimental: as §1, §2, §3

[4] = system: SORHA (johnsongrass (seedling)); test: Pre-emergence herbicidal activity, warm season; format: in vivo, Sorghum halepense; details: for Pre-emergence activity (GR80) SORHA: GR80 = lowest tested rate (300, 100, 30, 10 g/ha) with 80% or greater inhibition, approx. 14 days after treating, 30/21° C.
Summary of the method: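 Seeds sown in sterilised fertilised topsoil received surface-applied compound in 50:50 acetone/water, typically at 300, 100, 30 and 10 g/ha, then greenhouse-grown at 30/21° C (warm-season species) or 18/13° C (cool-season species). Percent inhibition versus untreated plants was scored at about 14 days, giving GR80; an asterisk marks activity short of 80% at the top rate.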

[5] = system: POLCO (wild buckwheat); test: Pre-emergence herbicidal activity, cool season; format: in vivo, Polygonum convolvulus; details: lowest tested rate with 80% or greater inhibition; rates 300, 100, 30, 10 g/ha; about 14 days
Summary of the method: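 Activity is expressed as the rate giving 80% inhibition, with 300, 100, 30 and 10 g/ha typically tested. An asterisk marks activity short of 80% at the top rate. Warm-season grasses were held at 30/21 °C; cool-season blackgrass and wild buckwheat at 18/13 °C; scoring at about 14 days.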

[6] = system: SASKR (russian thistle); test: Pre-plant incorporated (PPI) herbicidal activity, cool season; format: in vivo, Salsola kali; details: for PPI activity GR80, SASKR: pre-plant incorporated, lowest tested rate with 80% or greater inhibition, about 14 days
Experimental: as §1, §2, §3

[7] = Digitaria sanguinalis, PPI application, 30 g/ha, read-out: Percent inhibition DIGSA
[8] = Digitaria sanguinalis, PPI application, 100 g/ha, read-out: Percent inhibition DIGSA
[9] = Digitaria sanguinalis, PPI application, 300 g/ha, read-out: Percent inhibition DIGSA
[10] = Digitaria sanguinalis, PPI application, 900 g/ha, read-out: Percent inhibition DIGSA
[11] = weed, PPI application, 100 g/ha
[12] = weed, PPI application, 300 g/ha
[13] = weed, PPI application, 900 g/ha

CCSC(F)(F)S(=O)(=O)c1ncn(C(=O)N(CC)CC)n1 [Example 8, 1-(N,N-diethylcarbamoyl)-3-[difluoro(ethylthio)methylsulfonyl]-1,2,4-triazole]
inhibition at 30 g/ha [1, 7]: 100%
inhibition at 100 g/ha [1, 8]: 100%
inhibition at 300 g/ha [1, 9]: 100%
inhibition at 900 g/ha [1, 10]: 100%
PPI activity GR80, DIGSA [1]: 30 g/ha
inhibition at 30 g/ha ([2]; Hordeum vulgare, 30 g/ha, read-out: Percent inhibition HORVX): 0%
inhibition at 100 g/ha ([2]; Hordeum vulgare, 100 g/ha, read-out: Percent inhibition HORVX): 0%
inhibition at 300 g/ha ([2]; Hordeum vulgare, 300 g/ha, read-out: Percent inhibition HORVX): 10%
inhibition at 900 g/ha ([2]; Hordeum vulgare, 900 g/ha, read-out: Percent inhibition HORVX): 60%
inhibition at 30 g/ha ([3]; Elymus repens, weed, PPI application, 30 g/ha, read-out: Percent inhibition AGRRE): 0%
inhibition at 100 g/ha ([3]; Elymus repens, weed, PPI application, 100 g/ha, read-out: Percent inhibition AGRRE): 40%
inhibition at 300 g/ha ([3]; Elymus repens, weed, PPI application, 300 g/ha, read-out: Percent inhibition AGRRE): 70%
inhibition at 900 g/ha ([3]; Elymus repens, weed, PPI application, 900 g/ha, read-out: Percent inhibition AGRRE): 100%
PPI activity GR80, AGRRE [3]: 300 g/ha
Pre-emergence activity (GR80) SORHA [4]: 100 g/ha
Pre-emergence activity GR80, POLCO [5]: [empty]
inhibition at 30 g/ha ([6]; Salsola kali, weed, PPI application, 30 g/ha, read-out: Percent inhibition SASKR): 0%
inhibition at 100 g/ha ([6]; Salsola kali, weed, PPI application, 100 g/ha, read-out: Percent inhibition SASKR): 50%
inhibition at 300 g/ha ([6]; Salsola kali, weed, PPI application, 300 g/ha, read-out: Percent inhibition SASKR): 90%
inhibition at 900 g/ha ([6]; Salsola kali, weed, PPI application, 900 g/ha, read-out: Percent inhibition SASKR): 100%
PPI activity GR80, SASKR [6]: 100 g/ha

CCN(CC)C(=O)n1cnc(S(=O)(=O)C(F)(F)SCCOC)n1 [Example 13]
Percent inhibition DIGSA ([1]; PPI application, 10 g/ha): 0%
Percent inhibition DIGSA ([1]; PPI application, 30 g/ha): 75%
Percent inhibition DIGSA ([1]; PPI application, 100 g/ha): 100%
Percent inhibition DIGSA ([1]; PPI application, 300 g/ha): 100%
Percent inhibition DIGSA ([1]; PPI application, 900 g/ha): 100%
PPI activity GR80, DIGSA [1]: 30 g/ha
Percent inhibition HORVX ([2]; 10 g/ha): 0%
Percent inhibition HORVX ([2]; 30 g/ha): 0%
Percent inhibition HORVX ([2]; 100 g/ha): 20%
Percent inhibition HORVX ([2]; 300 g/ha): 10%
Percent inhibition HORVX ([2]; 900 g/ha): 40%
PPI activity GR80, AGRRE [3]: * (activity observed, at least at highest rate, but <80% inhibition)
Percent inhibition AGRRE ([3]; weed, PPI application, 10 g/ha): 0%
Percent inhibition AGRRE ([3]; weed, PPI application, 30 g/ha): 0%
Percent inhibition AGRRE [3, 11]: 20%
Percent inhibition AGRRE [3, 12]: 40%
Percent inhibition AGRRE [3, 13]: 60%
Pre-emergence activity GR80, POLCO [5]: [empty]
PPI activity GR80, SASKR [6]: 300 g/ha
Percent inhibition SASKR ([6]; weed, PPI application, 10 g/ha): 20%
Percent inhibition SASKR ([6]; weed, PPI application, 30 g/ha): 30%
Percent inhibition SASKR [6, 11]: 80%
Percent inhibition SASKR [6, 12]: 100%
Percent inhibition SASKR [6, 13]: 100%

CCN(CC)C(=O)n1cnc(S(=O)(=O)C(F)F)n1 [Example 15, 1-(N,N-diethylcarbamoyl)-3-(difluoromethylsulfonyl)-1,2,4-triazole]
inhibition at 10 g/ha ([1]; Digitaria sanguinalis, PPI application, 10 g/ha, read-out: Percent inhibition DIGSA): 90%
inhibition at 30 g/ha [1, 7]: 70%
inhibition at 100 g/ha [1, 8]: 100%
inhibition at 300 g/ha [1, 9]: 100%
inhibition at 900 g/ha [1, 10]: 100%
PPI activity GR80, DIGSA [1]: 100 g/ha
PPI activity GR80, AGRRE [3]: 300 g/ha
Pre-emergence activity (GR80) SORHA [4]: 100 g/ha
inhibition at 10 g/ha ([4]; Sorghum halepense, pre-emergence application, 10 g/ha, read-out: Percent inhibition, weed SORHA): 0%
inhibition at 30 g/ha ([4]; Sorghum halepense, pre-emergence application, 30 g/ha, read-out: Percent inhibition, weed SORHA): 0%
inhibition at 100 g/ha ([4]; Sorghum halepense, pre-emergence application, 100 g/ha, read-out: Percent inhibition, weed SORHA): 30%
inhibition at 300 g/ha ([4]; Sorghum halepense, pre-emergence application, 300 g/ha, read-out: Percent inhibition, weed SORHA): 95%
inhibition at 900 g/ha ([4]; Sorghum halepense, pre-emergence application, 900 g/ha, read-out: Percent inhibition, weed SORHA): 100%
PPI activity GR80, SASKR [6]: 100 g/ha

CCN(CC)C(=O)n1cnc(S(=O)(=O)C(F)(F)C(=O)c2ccccc2)n1 [Example 6]
PPI activity GR80, DIGSA [1]: 100 g/ha
PPI activity GR80, AGRRE [3]: 300 g/ha
Pre-emergence activity (GR80) SORHA [4]: 100 g/ha
Pre-emergence activity GR80, POLCO [5]: 300 g/ha
PPI activity GR80, SASKR [6]: 300 g/ha
